Test results: PubChem BioAssay AID1419 (Emory University Molecular Libraries Screening Center, 2008)
pIC50: −log10 of the molar value. Active and inactive are the calls of the source. How the calls were made is not given here.

Experiment: blockers of an Epstein-Barr virus protein-peptide interaction – biochemical, fluorescence polarization, dose response (AID 1419)
Settings: cell-free protein-peptide binding, 2 h; for fold change: measured here: P channel fold over control, at 54 µM

With CCC1(CC)NC(=O)N(CC(=O)Nc2sc3c(c2C(N)=O)CCC3)C1=O the IC50 was > 54 µM (inactive) and the fold change was 1.23.

With COc1cc(C2CC(C(F)(F)F)n3ncc(C(=O)O)c3N2)cc(OC)c1OC (configuration not stated) the IC50 was > 54 µM (inactive) and the fold change was 0.997.

In the case of CN1C(=O)/C(=C2\SC(=S)N(CCCCCC(=O)O)C2=O)c2ccccc21, the IC50 was 52.1 µM (inactive) and the fold change was 1.07.

With O=C(O)COc1ccc(/C=N/NC(=O)c2ccc(-c3csc(Nc4ccc(Cl)cc4)n3)cc2)cc1 the pIC50 was 4.83 and the fold change was 1.13.

O=c1oc2c3c4c(cc2c(C(F)(F)F)c1CCN1CCOCC1)CCCN4CCC3 showed a pIC50 greater than 6.38 and a fold change of 35.9.

In the case of Cc1c(C#N)c2ncnc(-c3ccccc3)c2n1-c1ccccc1, the IC50 was > 54 µM (inactive) and the fold change was 1.02.

In the case of CCOC(=O)/C(C#N)=C\c1ccc(N2CCN(C/C=C/c3ccccc3)CC2)cc1, the pIC50 was 4.73 and the fold change was 16.

Work on Cc1cc2nc3c(=O)n(CCc4ccccc4)c(=O)[nH]c3nc2cc1N yielded a pIC50 greater than 6.38 and a fold change of 115.

C(=N\NC1=Nc2cccc3cccc1c23)/c1ccccc1 gave a pIC50 of 4.77 and a fold change of 11.4.

In the case of O=Cc1ccc2oc3nc4n(c(=O)c3c(=O)c2c1)CCCS4, the IC50 was > 54 µM (inactive) and the fold change was 1.03.

For CC1=C/C(=C\c2ccc(Br)o2)C(=O)O1, the IC50 was > 54 µM (inactive) and the fold change was 0.98.

CCCCCCn1c(=O)[nH]c2nc3cc(N)ccc3nc2c1=O gave a pIC50 greater than 6.38 and a fold change of 85.8.

For Cc1ccc(N=Nc2c(N)[nH]n3c(=O)cc(-c4ccccc4)nc23)cc1, the IC50 was > 54 µM (inactive) and the fold change was 1.02.

Cc1ccc(NC(=O)CN2C(=O)/C(=C3\SC(=S)N(C4CCS(=O)(=O)C4)C3=O)c3ccccc32)cc1 (configuration not stated) showed a pIC50 of 4.69 and a fold change of 0.67.

Work on Cc1cc(=O)oc2cc(OCC(=O)N/N=C/c3cc([N+](=O)[O-])ccc3O)ccc12 yielded a pIC50 of 5.33 and a fold change of 1.

In the case of c1ccc(-c2cn3nc(-c4ccccc4)c(-c4ccccc4)nc3n2)cc1, the pIC50 was 6.11 and the fold change was 21.2.

Work on O=Cc1ccc2noc(-c3ccc(F)cc3)c2c1 yielded a pIC50 of 5.83 and a fold change of 5.46.

In the case of Cc1cc(NS(=O)(=O)c2ccc(NC(=O)c3cc4cc(Br)ccc4oc3=O)cc2)no1, the pIC50 was 4.86 and the fold change was 1.15.

For Cc1cc(=O)oc(C)c1C(=O)Nc1ccc2ncccc2c1, the pIC50 was 5.53 and the fold change was 5.89.

With CNc1cccc2c1C(=O)c1ccccc1C2=O the pIC50 was 5.55 and the fold change was 2.44.

With Cc1cccc2cc(/C=C3\N=C(c4ccccc4)OC3=O)c(N3CCOCC3)nc12 the pIC50 was 4.88 and the fold change was 12.5.

For Cc1cc(S(=O)(=O)Nc2nc(CN3CCOCC3)nc3sc4c(c23)CCCC4)ccc1F, the IC50 was > 54 µM (inactive) and the fold change was 1.04.

COc1ccc2nc(-n3c(O)c(C4=c5ccccc5=NC4=O)[nH]c3=S)sc2c1 gave a pIC50 of 5.46 and a fold change of 0.923.

For COc1cc(CCC(=O)N2CCN(c3ncccn3)CC2)cc(OC)c1OC, the IC50 was > 54 µM (inactive) and the fold change was 1.05.

For CCC1=NN2C(=N)/C(=C\c3ccc(OCc4cc(=O)n5nc(CC)sc5n4)c(OC)c3)C(=O)N=C2S1, the IC50 was > 54 µM (inactive) and the fold change was 1.08.

N#C/C(=C\C1=C(N2CCOCC2)C(=C\c2ccc(Cl)cc2)/CC1)C(=O)Nc1ccccc1F gave a pIC50 of 5.46 and a fold change of 4.49.

With Cc1ccc(S(=O)(=O)C(C#N)c2nc3ccccc3nc2N2CCCC2)cc1C (configuration not stated) the IC50 was > 54 µM (inactive) and the fold change was 1.26.

With O=C1/C(=C/c2ccco2)SC(=S)N1c1cccnc1 the IC50 was > 54 µM (inactive) and the fold change was 1.09.

In the case of CC(C)(C)c1ccc(OCC(=O)Nc2ccc3c4c(cccc24)C(=O)NC3=O)cc1, the IC50 was > 54 µM (inactive) and the fold change was 2.15.

N#CC1CC(c2ccc([N+](=O)[O-])cc2)=NN1c1ccc([N+](=O)[O-])cc1 (configuration not stated) showed a pIC50 of 5.41 and a fold change of 6.23.

With O=c1[nH]c(=S)n(-c2ccc(Br)cc2)c(O)c1C=Nc1ccc(N2CCOCC2)cc1 the pIC50 was 5.45 and the fold change was 5.78.
